Measured values published in ChEMBL document CHEMBL3396989, “Discovery of hydroxyaniline amides as selective Extracellular Regulated Kinase (Erk) inhibitors” (Bioorg Med Chem Lett, 2015).

Tests used:
[1] = target: T1, Mitogen-activated protein kinase 1 (Homo sapiens, UniProt P28482); test: ATP competitive inhibition of activated Erk2 (unknown origin) by biochemical assay
[2] = target: T1, Mitogen-activated protein kinase 1; test: Binding affinity to activated Erk2 (unknown origin) by TdF assay
[3] = target: T1, Mitogen-activated protein kinase 1; test: Binding affinity to non-phosphorylated Erk2 (unknown origin) by TdF assay
[4] = target: T1, Mitogen-activated protein kinase 1; test: Inhibition of non-activated Erk2 (unknown origin) using activating Mek1 and peptide substrate by coupled Erk2 assay
[5] = target: T1, Mitogen-activated protein kinase 1; test: Inhibition of activated Erk2 (unknown origin) by biochemical assay

T1 sequence (P28482 whole entry): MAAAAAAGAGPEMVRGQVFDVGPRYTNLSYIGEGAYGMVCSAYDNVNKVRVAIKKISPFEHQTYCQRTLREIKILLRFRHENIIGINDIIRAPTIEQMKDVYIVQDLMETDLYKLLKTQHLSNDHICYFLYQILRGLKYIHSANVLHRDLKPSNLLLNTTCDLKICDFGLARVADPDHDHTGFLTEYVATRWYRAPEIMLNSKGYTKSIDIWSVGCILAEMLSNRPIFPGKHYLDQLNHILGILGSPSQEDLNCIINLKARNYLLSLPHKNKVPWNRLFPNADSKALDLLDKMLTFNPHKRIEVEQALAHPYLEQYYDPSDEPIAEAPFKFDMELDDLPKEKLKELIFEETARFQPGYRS

IC50 [4] [µM] | IC50 ([5]; read-out: IC50) [µM] | SMILES | other results
 |  | CC(=O)c1ccc(N2CCN(C(=O)CN3CCC(C(=O)Nc4ccc(O)cc4)C3)CC2)cc1 (stereo not drawn) | IC50 [1]: 15.2 µM; Kd [2]: 1.9 µM; Kd [3]: 1.06 µM
0.014 | 0.13 | O=C(Nc1ccc(O)c(Cl)c1)[C@@H]1CCN(CC(=O)N2CCN(c3ccc(-c4cnccn4)cc3)CC2)C1 | 
 | 6 | CC(=O)c1ccc(N2CCN(C(=O)CN3CC[C@@H](C(=O)Nc4ccc(O)cc4)C3)CC2)cc1 | 
19 | 100 | O=C(Nc1ccc(O)c(Cl)c1)[C@@H]1CCN(CC(=O)N2CCN(c3ccc(-c4ccc(F)cc4)cc3)CC2)C1 | 
2.3 | 50 | COc1ccc(-c2ccc(N3CCN(C(=O)CN4CC[C@@H](C(=O)Nc5ccc(O)c(Cl)c5)C4)CC3)cc2)cc1 | 
1 | 12 | O=C(Nc1ccc(O)c(Cl)c1)[C@@H]1CCN(CC(=O)N2CCN(c3ccc(-c4cnco4)cc3)CC2)C1 | 
0.073 | 1.8 | CC(C)c1cc(NC(=O)[C@@H]2CCN(CC(=O)N3CCN(c4ccc(-c5ncccn5)cc4)CC3)C2)ccc1O | 
0.005 | 0.1 | O=C(Nc1ccc(O)c(C(F)(F)F)c1)[C@@H]1CCN(CC(=O)N2CCN(c3ccc(-c4ncccn4)cc3)CC2)C1 | 
0.036 | 1.76 | O=C(Nc1ccc(O)c(Cl)c1)[C@@H]1CCN(CC(=O)N2CCN(c3ccc(-c4ncc(F)cn4)cc3)CC2)C1 | 
0.073 | 1.8 | O=C(Nc1ccc(O)c(Cl)c1)[C@@H]1CCN(CC(=O)N2CCN(c3ccc(-c4cncnc4)cc3)CC2)C1 | 
0.071 | 2.67 | COc1ncc(-c2ccc(N3CCN(C(=O)CN4CC[C@@H](C(=O)Nc5ccc(O)c(Cl)c5)C4)CC3)cc2)cn1 | 
0.3 | 9.34 | O=C(Nc1ccc(O)c(Cl)c1)[C@@H]1CCN(CC(=O)N2CCN(c3ccc(-c4nccs4)cc3)CC2)C1 | 
2.5 | 20 | O=C(Nc1ccc(O)c(Cl)c1)[C@@H]1CCN(CC(=O)N2CCN(c3ccc(-c4cccs4)cc3)CC2)C1 | 
2.2 |  | O=C(Nc1ccc(O)c(Cl)c1)[C@@H]1CCN(CC(=O)N2CCN(c3ccc(-c4cccc(F)c4)cc3)CC2)C1 | IC50 [5]: Not Active
0.036 | 1.76 | O=C(Nc1ccc(O)c(C2CC2)c1)[C@@H]1CCN(CC(=O)N2CCN(c3ccc(-c4ncccn4)cc3)CC2)C1 | 
0.005 | 0.1 | CCc1cnc(-c2ccc(N3CCN(C(=O)CN4CC[C@@H](C(=O)Nc5ccc(O)c(Cl)c5)C4)CC3)cc2)nc1 | 
0.071 | 2.67 | O=C(Nc1ccc(O)c(F)c1)[C@@H]1CCN(CC(=O)N2CCN(c3ccc(-c4ncccn4)cc3)CC2)C1 | 
0.02 | 0.41 | O=C(Nc1ccc(O)c(Cl)c1)[C@@H]1CCN(CC(=O)N2CCN(c3ccc(-c4ncccn4)cc3)CC2)C1 | 
1.2 |  | O=C(Nc1ccc(O)c(Cl)c1)[C@@H]1CCN(CC(=O)N2CCN(c3ccc(-c4ccccc4F)cc3)CC2)C1 | IC50 [5]: Not Active
